Data published in patent US12344879B2, “Transgenic bacteria with expanded amino acid usage and nucleic acid molecules for use in the same” (BOARD OF REGENTS, THE UNIVERSITY OF TEXAS SYSTEM, priority 2015, dated 2025).

Key:
[1] = test system: human cellular glutathione peroxidase (GPx-1) codon 49; test: Selenocysteine incorporation into GPx-1 U49 by intact mass spectrometry; design: species or system E. coli RTΔA.2; settings: GPx-1 U49, pGPx-U49-AU and pRSF-eSelAK
Method: RTΔA.2 transformants containing pGPx-U49-AU and pRSF-eSelAK were cultured as described previously for azurin. Cells were harvested by centrifugation and resuspended in 50 mL of buffer (50 mM Potassium Phosphate, 150 mM NaCl, 10% glycerol, 1 mM DTT at pH 8.0) and lysozyme at 1 mg·mL^−1. Cells were lysed by sonication and clarified prior to GPx-1 recovery by IMAC. Eluate was concentrated and dialyzed against 100 mM phosphate buffer pH 8.0, 0.1% Tween 20 and 1 mM DTT followed by isolation of GPx-1 by anion exchange chromatography (Q HP column). GPx-1 was produced with a yield of 500 μg·L^−1 and close to 100% selenocysteine incorporation efficiency.
Intact protein samples were analyzed using methods described previously (Ellefson et al., 2014). Azurin, DHFR and GPx-1 samples were buffer exchanged into LC-MS grade water using 10 kDa molecular weight cutoff filters. Once the buffer exchange was complete the samples were diluted to 20 μM in a methanol/water/formic acid (50/49/1) solution. […] UVPD mass spectra were also deconvoluted using Xtract and then analyzed using ProsightPC 3.0. […] Incorporation efficiencies were calculated by dividing the area of the modified protein peak by the summed areas of the unmodified protein peak and the modified protein peak. […]

[2] = test system: NMC-A β-lactamase reporter (C69X); test: NMC-A β-lactamase reporter assay (ampicillin resistance by amber suppression with selenocysteine); type: cell-based, E. coli DHΔabc; settings: NMC-A C69X reporter, DHΔabc
Excerpt: A method of genetic selection capable of discriminating different levels of selenocysteine incorporation was developed. To specifically ‘addict’ a reporter protein to selenocysteine rather than serine, the NMC-A β-lactamase from Enterobacter cloacae was used. […] Then cysteine 69 was replaced with an amber stop codon (X69; FIG. 1a) for library selection, hypothesizing that the incorporation of selenocysteine and the formation of a selenyl-sulfhydryl bond would restore activity. (Swardn et al., 1998)
To eliminate any crosstalk between the tRNA^Sec library and the endogenous selenocysteine incorporation machinery, the selA, selB and selC genes (encoding SelA, SelB and tRNA^Sec respectively) were deleted from E. coli DH10B (designated DHΔabc). Cells containing the reporter plasmid pNMC-A C69X and the accessory plasmid pRSF-eSelA (expressing SelA) were transformed with plasmid pMB1-ZU containing the tRNA^Sec antideterminant library. Transformants were plated on media containing a gradient of ampicillin concentrations for selection of mutants capable of selenocysteine-specific suppression. The single colonies that arose covered a range of ampicillin concentrations. […] Of these tRNA^Sec variants, only G7-C66:U49-G65:C50-U64 was detected at the two highest ampicillin concentration (200 and 250 μg·ml^−1).
The tRNA^Sec antideterminant library was generated by enzymatic inverse PCR using oligonucleotide primers (Table 2) to randomize the six positions identified as the main antideterminant for EF-Tu binding. Following self ligation for 16 hours, DNA was ethanol precipitated with GlycoBlue (Ambion) and transformed by electroporation into E. coli DHΔabc containing the plasmids pNMC-A C69X and pRSF-eSelA. Transformants were diluted in 200 ml LB medium containing 12.5 μg·mL^−1 Zeocin, 6.25 μg·mL^−1 tetracycline and 25 μg·mL^−1 kanamycin and incubated overnight. Following overnight growth, cells were diluted 1/50 in LB medium containing 6.25 μg·mL^−1 Zeocin, 3.75 μg·mL^−1 tetracycline, 12.5 μg·mL^−1 kanamycin, 1 μM Na2SeO3 and 20 μg·mL^−1 L-cysteine and incubated for one hour. A series of 250 μl aliquots of cells were plated on LB agar containing 6.25 μg·mL^−1 Zeocin, 3.75 μg·mL^−1 tetracycline, 12.5 […], 1 μM Na2SeO3 and 20 μg·mL^−1 L-cysteine and 50-300 μg·mL^−1 ampicillin in 50 μg·mL^−1 increments. After 20 hours at 37° C. individual colonies were observed on plates containing 50-200 μg·mL^−1 ampicillin. Plasmid DNA was isolated from a selection of colonies from all plates and tRNA^Sec mutations determined by Sanger sequencing.
NotI/NcoI fragments containing tRNA^SecUx were subcloned into pRSF-eSelA to generate pRSF-UX-eSelA. pRSF-U-eSelA variants described in Table 1 were transformed into E. coli DHΔabc containing the reporter plasmid pNMC-A C69TAG. DHΔabc cells containing pNMC-A and pRSFDuet-1 were used as a positive control. DHΔabc cells harboring pNMC-A C69S and pRSF-UX-eSelA, and pNMC-A C69TAG and pRSF-UX-ΔSelA were used as controls for selenocysteine dependent β-lactamase activity. Transformants were cultured overnight in LB medium containing 6.25 μg·mL^−1 tetracycline, 25 μg·mL^−1 kanamycin, 1 μM Na2SeO3 and 20 […]. Following overnight growth, cells were diluted 1/10 in LB medium containing antibiotics, selenite and L-cysteine and incubated for three hours. […]

[3] = test system: E. coli formate dehydrogenase H (FdhH); test: Benzyl viologen assay; type: cell-based, E. coli DHΔabcF; settings: FdhH U140TAG or U140S reporter, co-expressed with SelA, anaerobic
Method: The tRNA^Sec variant containing the G7-C66:U49-G65:C50-U64 (SEQ ID NO: 18) antideterminant sequence was designated tRNA^SecUx and was compared with the previously designed chimera (tRNA^UTu) and with a tRNA^Sec derivative designed to have an antideterminant region that should tightly bind EF-Tu (tRNA^UG; FIG. 2a). […] The hybrid tRNA^UTu incorporated selenocysteine and could grow on 75 μg·ml^−1. […] To further confirm tRNA^SecUx incorporated selenocysteine in response to amber stop codons, a standard colorimetric assay was employed based on the activity of the endogenous E. coli selenoprotein formate dehydrogenase H (FdhH) (FIG. 2b).
E. coli DH10B cells containing pRSFDuet-1 and pcat-pheS were used as a positive control. DHΔabcF cells harboring p15A-fdhF U140S and pRSF-UX-eSelA, and p15A-fdhF U140X and pRSF-UX-ΔSelA were used as controls for selenocysteine dependent formate dehydrogenase activity. Transformants were grown overnight at 37° C. in LB medium supplemented with 12.5 μg·mL^−1 tetracycline and 50 μg·mL^−1 kanamycin. Overnight cultures were diluted 1/20 in a final volume of 2 ml and incubated for three hours. Cultures were normalized to OD600=0.5 and 5 μl aliquots were dotted on LB agar plates containing 3.75 μg·mL^−1 tetracycline, 12.5 μg·mL^−1 kanamycin, 5 mM sodium formate, 10 μM Na2MoO4, 1 μM Na2SeO3 and 20 μg·mL^−1 L-cysteine. Plates were incubated at 37° C. for 3 h under aerobic conditions and then transferred to anaerobic conditions at 37° C. for 60 h. Upon removal from the anaerobic chamber, plates were immediately overlaid with agar containing 1 mg·mL^−1 benzyl viologen, 250 mM sodium formate and 25 mM KH2PO4 at pH 7.0. Plates were photographed within 1 h of overlaying.

GPx-1: Recombinant human cellular glutathione peroxidase with selenocysteine at codon 49
selenocysteine incorporation efficiency in GPx-1 [1]: ~100%

tRNA^SecCUA: Parental E. coli tRNA^Sec containing a CUA anticodon [reference compound]
production of active β-lactamase [2]: failed to produce active β-lactamase

B1: tRNA^UG: tRNA^Sec derivative with strong EF-Tu binding region from the major E. coli tRNA^Gly (nucleic acid)
chain: GGAAGATGGTCGTCTCCGGTGAGGCGGCTGGACTCTAAATCCAGTTGGGGCCGCCAGCGGTCCCGGCGAGGTTCGACTCCTCGTATCTTCCGCCA
modifications: expressed or natural sequence
production of active β-lactamase [2]: failed to produce active β-lactamase

B2: FdhH U140S: E. coli formate dehydrogenase H with serine in place of selenocysteine 140 (protein, UniProt P07658 1-715, looked up, variant U140S)
Formate dehydrogenase H: MKKVVTVCPYCASGCKINLVVDNGKIVRAEAAQGKTNQGTLCLKGYYGWDFINDTQILTPRLKTPMIRRQRGGKLEPVSWDEALNYVAERLSAIKEKYGPDAIQTTGSSRGTGNETNYVMQKFARAVIGTNNVDCCARVSHGPSVAGLHQSVGNGAMSNAINEIDNTDLVFVFGYNPADSHPIVANHVINAKRNGAKIIVCDPRKIETARIADMHIALKNGSNIALLNAMGHVIIEENLYDKAFVASRTEGFEEYRKIVEGYTPESVEDITGVSASEIRQAARMYAQAKSAAILWGMGVTQFYQGVETVRSLTSLAMLTGNLGKPHAGVNPVRGQNNVQGACDMGALPDTYPGYQYVKDPANREKFAKAWGVESLPAHTGYRISELPHRAAHGEVRAAYIMGEDPLQTDAELSAVRKAFEDLELVIVQDIFMTKTASAADVILPSTSWGEHEGVFTAADRGFQRFFKAVEPKWDLKTDWQIISEIATRMGYPMHYNNTQEIWDELRHLCPDFYGATYEKMGELGFIQWPCRDTSDADQGTSYLFKEKFDTPNGLAQFFTCDWVAPIDKLTDEYPMVLSTVREVGHYSCRSMTGNCAALAALADEPGYAQINTEDAKRLGIEDEALVWVHSRKGKIITRAQVSDRPNKGAIYMTYQWWIGACNELVTENLSPITKTPEYKYCAVRVEPIADQRAAEQYVIDEYNKLKTRLREAALA
FdhH activity (reduction of benzyl viologen) [3]: completely inactive
